Assay results: ChEMBL document CHEMBL3102714 (J Med Chem, 2013)
Where a SMILES comes first, the peptide text is derived from it.

What was measured:
Type in all cases: cell-based
[1] = biological target: Nicotinic acetylcholine receptor alpha6/alpha3/beta4 (Homo sapiens, UniProt P30926+P32297+Q15825); experiment: Antagonist activity at human alpha6alpha3beta4 nAChR expressed in Xenopus oocytes assessed as inhibition of ACh-induced current by voltage clamp electrophysiology method
[2] = biological target: Neuronal acetylcholine receptor; alpha3/beta2 (Homo sapiens, UniProt P17787+P32297); experiment: Antagonist activity at human alpha3beta2 nAChR expressed in Xenopus oocytes assessed as inhibition of ACh-induced current by voltage clamp electrophysiology method
[3] = biological target: Neuronal acetylcholine receptor; alpha3/beta4 (Homo sapiens, UniProt P30926+P32297); experiment: Antagonist activity at human alpha3beta4 nAChR expressed in Xenopus oocytes assessed as inhibition of ACh-induced current by voltage clamp electrophysiology method
[4] = biological target: Neuronal acetylcholine receptor; alpha3/alpha6/beta2/beta3 (Homo sapiens, UniProt P17787+P32297+Q05901+Q15825); experiment: Antagonist activity at human alpha6/alpha3beta2beta3 nAChR expressed in Xenopus oocytes assessed as inhibition of ACh-induced current by voltage clamp electrophysiology method
Neuronal acetylcholine receptor; alpha3/alpha6/beta2/beta3, sequence (P17787 whole entry): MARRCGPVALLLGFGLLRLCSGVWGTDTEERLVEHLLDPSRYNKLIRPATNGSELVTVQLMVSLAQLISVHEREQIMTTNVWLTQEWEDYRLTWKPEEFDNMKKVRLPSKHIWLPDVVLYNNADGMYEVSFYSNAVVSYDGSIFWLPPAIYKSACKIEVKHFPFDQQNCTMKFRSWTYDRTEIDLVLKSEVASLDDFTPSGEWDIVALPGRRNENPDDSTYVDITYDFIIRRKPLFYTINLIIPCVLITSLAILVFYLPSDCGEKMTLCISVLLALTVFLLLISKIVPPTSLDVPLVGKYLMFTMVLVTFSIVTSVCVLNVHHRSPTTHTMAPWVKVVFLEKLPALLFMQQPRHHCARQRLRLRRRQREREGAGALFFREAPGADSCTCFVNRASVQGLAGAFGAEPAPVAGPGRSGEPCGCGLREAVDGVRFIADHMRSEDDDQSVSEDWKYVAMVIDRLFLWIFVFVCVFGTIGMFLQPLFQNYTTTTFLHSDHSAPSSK
Neuronal acetylcholine receptor; alpha3/alpha6/beta2/beta3, sequence (P32297 whole entry): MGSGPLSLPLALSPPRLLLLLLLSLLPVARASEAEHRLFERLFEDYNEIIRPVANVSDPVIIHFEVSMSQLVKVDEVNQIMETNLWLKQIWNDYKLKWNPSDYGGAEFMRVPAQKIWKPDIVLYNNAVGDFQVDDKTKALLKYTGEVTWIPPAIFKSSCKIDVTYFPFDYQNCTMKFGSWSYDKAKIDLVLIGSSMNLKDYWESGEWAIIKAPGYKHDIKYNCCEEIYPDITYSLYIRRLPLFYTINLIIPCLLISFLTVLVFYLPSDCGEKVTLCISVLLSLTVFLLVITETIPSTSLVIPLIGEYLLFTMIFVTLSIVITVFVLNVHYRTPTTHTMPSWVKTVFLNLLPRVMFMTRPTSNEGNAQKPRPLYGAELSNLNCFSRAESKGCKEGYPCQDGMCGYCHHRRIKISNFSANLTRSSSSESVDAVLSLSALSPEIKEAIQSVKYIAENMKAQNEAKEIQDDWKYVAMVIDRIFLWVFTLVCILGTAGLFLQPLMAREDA
Neuronal acetylcholine receptor; alpha3/alpha6/beta2/beta3, sequence (Q15825 whole entry): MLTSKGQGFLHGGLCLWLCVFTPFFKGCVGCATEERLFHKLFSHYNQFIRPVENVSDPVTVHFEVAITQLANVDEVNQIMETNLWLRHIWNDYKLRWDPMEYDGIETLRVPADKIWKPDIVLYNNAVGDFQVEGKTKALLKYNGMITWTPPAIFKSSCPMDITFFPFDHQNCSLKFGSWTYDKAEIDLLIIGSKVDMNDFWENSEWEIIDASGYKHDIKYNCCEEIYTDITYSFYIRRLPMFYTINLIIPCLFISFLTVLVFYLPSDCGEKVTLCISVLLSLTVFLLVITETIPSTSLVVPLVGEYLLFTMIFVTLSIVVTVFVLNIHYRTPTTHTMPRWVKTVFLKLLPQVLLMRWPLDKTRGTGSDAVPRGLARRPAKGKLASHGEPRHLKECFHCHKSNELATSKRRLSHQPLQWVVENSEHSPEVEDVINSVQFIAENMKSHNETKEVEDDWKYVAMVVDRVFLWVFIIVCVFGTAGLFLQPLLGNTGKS
Neuronal acetylcholine receptor; alpha3/alpha6/beta2/beta3, sequence (Q05901 whole entry): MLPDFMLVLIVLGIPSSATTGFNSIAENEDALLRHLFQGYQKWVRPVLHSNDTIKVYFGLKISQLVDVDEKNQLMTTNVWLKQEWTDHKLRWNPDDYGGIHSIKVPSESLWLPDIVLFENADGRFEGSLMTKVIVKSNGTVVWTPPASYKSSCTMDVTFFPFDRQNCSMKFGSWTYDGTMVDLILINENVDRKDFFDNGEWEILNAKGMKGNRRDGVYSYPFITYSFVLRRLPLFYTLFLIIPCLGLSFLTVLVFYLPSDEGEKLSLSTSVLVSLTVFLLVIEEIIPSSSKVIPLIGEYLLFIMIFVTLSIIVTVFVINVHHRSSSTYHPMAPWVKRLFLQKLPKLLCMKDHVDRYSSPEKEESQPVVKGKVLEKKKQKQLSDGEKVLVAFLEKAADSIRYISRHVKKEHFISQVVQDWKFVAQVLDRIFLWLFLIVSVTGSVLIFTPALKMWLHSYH

Neuronal acetylcholine receptor; alpha3/beta2, sequence (P17787 whole entry): as the sequence (P17787 whole entry) above
Neuronal acetylcholine receptor; alpha3/beta2, sequence (P32297 whole entry): as the sequence (P32297 whole entry) above
Neuronal acetylcholine receptor; alpha3/beta4, sequence (P30926 whole entry): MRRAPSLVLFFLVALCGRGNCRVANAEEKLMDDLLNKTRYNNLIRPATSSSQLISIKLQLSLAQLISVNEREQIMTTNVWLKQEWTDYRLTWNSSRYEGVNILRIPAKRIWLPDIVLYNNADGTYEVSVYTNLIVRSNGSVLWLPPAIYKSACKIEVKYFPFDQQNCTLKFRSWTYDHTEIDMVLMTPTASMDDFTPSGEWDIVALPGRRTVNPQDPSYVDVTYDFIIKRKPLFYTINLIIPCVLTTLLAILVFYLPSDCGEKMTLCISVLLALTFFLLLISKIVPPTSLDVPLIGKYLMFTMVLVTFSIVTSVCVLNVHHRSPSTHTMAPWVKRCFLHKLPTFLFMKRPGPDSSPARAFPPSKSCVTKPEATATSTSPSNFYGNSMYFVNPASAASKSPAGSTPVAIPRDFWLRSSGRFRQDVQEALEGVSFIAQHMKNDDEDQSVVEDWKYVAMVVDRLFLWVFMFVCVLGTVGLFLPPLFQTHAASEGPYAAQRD
Neuronal acetylcholine receptor; alpha3/beta4, sequence (P32297 whole entry): as the sequence (P32297 whole entry) above
Nicotinic acetylcholine receptor alpha6/alpha3/beta4, sequence (P30926 whole entry): as the sequence (P30926 whole entry) above
Nicotinic acetylcholine receptor alpha6/alpha3/beta4, sequence (P32297 whole entry): as the sequence (P32297 whole entry) above
Nicotinic acetylcholine receptor alpha6/alpha3/beta4, sequence (Q15825 whole entry): as the sequence (Q15825 whole entry) above

SMILES: CC[C@H](C)[C@@H]1NC(=O)[C@H](CCC(N)=O)NC(=O)[C@@H]2CCCN2C(=O)[C@H](CC(N)=O)NC(=O)[C@H](Cc2cnc[nH]2)NC(=O)[C@H](C(C)C)NC(=O)[C@H]([C@@H](C)O)NC(=O)[C@@H]2CSSC[C@H](NC(=O)[C@@H]3CCCN3C(=O)[C@H](CC(=O)O)NC(=O)[C@@H](N)CCCN=C(N)N)C(=O)N[C@@H](CSSC[C@@H](C(N)=O)NC1=O)C(=O)N[C@@H](CO)C(=O)N[C@@H](CC(N)=O)C(=O)N1CCC[C@H]1C(=O)N[C@@H](C(C)C)C(=O)N2 (HELM PEPTIDE1{R.D.P.C.C.S.N.P.V.C.T.V.H.N.P.Q.I.C.[am]}$PEPTIDE1,PEPTIDE1,4:R3-10:R3|PEPTIDE1,PEPTIDE1,5:R3-18:R3$$$V2.0)
- IC50 [1]: 0.0305 µM
- IC50 [2]: 0.0742 µM
- IC50 [3]: 0.518 µM
- IC50 [4]: 0.00095 µM
